Experimental data from US20240226058A1, “STABILIZED CANNABINOID COMPOSITIONS AND METHODS OF PREPARATION THEREOF” (priority 2020, published 2024).

How the values were obtained:
[1] = Cannabinoid stability in cold-brewed coffee with tocopherol-containing emulsions; type: physicochemical; details: cold-brewed coffee base (FIG. 5)
Excerpt: FIG. 5 is a graph showing quantified THC content when alpha-tocopherol (Vitamin E, VE) was incorporated into our emulsion alongside THC. Alpha-tocopherol (Vitamin E, VE) was incorporated into the emulsion alongside THC.
FIG. 6 is a graph showing cannabinoid stability testing on a cold-brewed coffee product (20× concentrated base and final product) using two different emulsions containing tocopherols (QNE=our in-house Q-naturale+VitE emulsion; NGAO=Nanogen's (a 3rd party emulsion provider) antioxidant formulation).

[2] = THC content in infused hop water stored at room temperature; type: physicochemical; details: for protection of cannabinoid API against oxidative damage: infused beverage, tocopherols emulsified with cannabis oil, ascorbic acid about 0.5-1 mM in aqueous base
[3] = Heat-accelerated (~37° C.) THC stability with aqueous-phase vitamin C and/or EDTA; type: physicochemical; details: for THC loss compared to control: vitamin C or EDTA individually, actual hop water base (FIG. 9)
[4] = THC loss in RO water at pH 3.6 vs. neutral pH; type: physicochemical; details: 20 mg THC/355 mL, citric acid to pH 3.6 (FIG. 4)
Procedure: FIG. 4 is a graph showing an experiment ruling out pH as a driving factor behind THC loss. Dosed RO water to 20 mg THC/355 mL and used citric acid to pH down to 3.6 (which is the pH of the Infused hop water products) vs. neutral pH (had to bring H2O pH up a bit using sodium carbonate). No difference was observed.

[5] = In-house comparison of oxidation rates of emulsified cannabinoids
[6] = Color and flavor stability of infused hop water at 37° C. incubation; type: physicochemical

Molecule: Cc1c(C)c2c(c(C)c1O)CC[C@@](C)(CCC[C@H](C)CCC[C@H](C)CCCC(C)C)O2 [Alpha-tocopherol, alpha-tocopherol]
- THC content, emulsion formulated with vs without Vitamin E [1]: no appreciable difference

Molecule: CCCCCc1cc(O)c2c(c1)OC(C)(C)c1ccc(C)cc1-2 [CBN, cannabinol]
- Maximal CBN levels observed ([2]; room temperature infused hop water samples (FIG. 2)): about 20 % of the original THC content

Molecule: O=C(O)CN(CCN(CC(=O)O)CC(=O)O)CC(=O)O [EDTA, ethylenediaminetetraacetic acid]
- THC loss compared to control [3]: able to mitigate THC loss compared to control, but did not fully prevent it

Molecule: CCCCCc1cc(O)c2c(c1)OC(C)(C)[C@@H]1CCC(C)=C[C@@H]21 [THC, Δ^9-tetrahydrocannabinol, reference compound]
- THC loss, pH 3.6 vs neutral pH [4]: No difference
- rate of THC loss in high dissolved oxygen (DO) samples ([3]; aerated samples, shaken with air exposure (FIG. 8)): fastest rate of THC loss
- rate of THC loss with intentional increase in DO levels ([3]; heat-accelerated, three emulsion formulations (FIG. 10)): faster rates of loss
- rate of THC loss ([2]; infused hop water beverages, room temperature, no antioxidants added, linear (FIG. 1)): roughly −0.35 % THC per day
- rate of oxidation compared to CBD [5]: drastically faster rates of oxidation

Molecule: O=C1O[C@H]([C@@H](O)CO)C(O)=C1O [vitamin C, ascorbic acid]
- antioxidant efficacy between concentrations ([3]; 0.5-10 mM vitamin C, infused hop water, 4 weeks heat-accelerated (~9 months at RT) (FIG. 11)): little difference
- protection to THC ([3]; 30 days @ ~37° C., equivalent to ~10 months at room temperature): sufficient protection
- THC (cannabinoid) loss ([3]; Vitamin C 176 ppm=1 mM and/or EDTA 25 ppm in aqueous phase, hop terpene-infused base (FIG. 7)): slowed rates of cannabinoid loss
- concentration of vitamin C concluded sufficient ([3]; infused hop water products (FIG. 11)): 500 µM
- THC loss compared to control [3]: able to mitigate THC loss compared to control, but did not fully prevent it
- protection of cannabinoid API against oxidative damage [2]: ample protection
- THC loss compared to tocopherol-only preparations ([2]; room temperature, after roughly five months): negligible amounts of THC loss
- color and flavor alterations in the beverage product ([6]; heat-accelerated, 30 days @ ~37° C.): strongly protected against unfavorable color and flavor alterations
- formation of off-colors and flavors ([6]; infused hop water, 3 weeks at 37° C., EDTA 25 ppm, vitamin C 176 ppm): largely prevent formation of off-colors and flavors

Molecule: Tocopherols
- protection of cannabinoid API against oxidative damage [2]: not found to suitably mitigate oxidative damage by itself
